{
  "source": "patent US20100317047A1",
  "about": "“Biomarkers of Hemorrhagic Shock” (THE GENERAL HOSPITAL CORPORATION, priority 2009, published 2010)",
  "key": {"22.7 kDa protein": {"system": "22.7 kDa protein", "assay": "SELDI-TOF MS serum protein profiling in lethal hemorrhagic shock model", "type": "in vivo", "conditions": "rat serum, 24 hours after VPA 300 mg/kg via femoral vein after hemorrhage; p<0.05 vs HS, n=5", "protocol": "(§1) An animal model of HS was used. Male Wistar-Kyoto rats (254.12±2.71 grams, Harlan, Indianapolis, Ind.) were used in the lethal model of hemorrhagic shock (Shults et al., J. Trauma. 2008; 64(3): 629-638). Each animal's estimated blood volume was calculated using the formula: [estimated blood volume (mL)=weight (g)×0.06 (mL/g)+0.77]. About 1.3 mL of blood was manually drawn at the beginning and end of hemorrhage for analysis (included in the total hemorrhage calculation). The animals were hemorrhaged (40% of their calculated total blood volume) via a femoral arterial catheter over 10 minutes, followed by a 20% blood volume venous bleed over the next 50 minutes. Bleeding was performed using Kent Scientific adjustable pumps (Kent Scientific Corporation, NJ). VPA (300 mg/kg) was administered via a femoral vein catheter after completion of hemorrhage. Blood pressure was monitored continuously during the experiment. The mean arterial pressure (MAP) in animals that were subjected to hemorrhage dropped sharply after bleeding to approximately 20 mm Hg. […]\nProteinChip profiling was performed on CM10 ProteinChip arrays (Ciphergen Biosystems, Fremont Calif.), as recommended by the manufacturer. […] The arrays were then inserted into a ProteinChip (Enterprise edition) TOF-MS and read at an optimized laser setting of 2000 nJ-5000 nJ. […]"}, "claudin-3 mRNA": {"system": "claudin-3 mRNA", "assay": "RT-PCR of intestinal claudin-3 mRNA in hemorrhagic shock model", "type": "in vivo", "conditions": "rat intestine, 1, 6 and 24 hours; β-actin internal control, n=3", "protocol": "To assess whether gene expression of claudin-3 responds to HS and VPA treatment, the mRNA expression of rat intestines among the groups of sham, HS and VPA treatment was compared at 1, 6 and 24 hours using RT-PCR methods."}, "claudin-3 [1]": {"system": "claudin-3", "assay": "Western blot of intestinal claudin-3 protein in hemorrhagic shock model", "type": "in vivo", "conditions": "rat intestinal lysate, 1, 6 and 24 hours after VPA treatment, vs HS 1 hour; n=3", "protocol": "as §1, with “experiment.” for “experiment. The mean arterial pressure (MAP) in animals that were subjected to hemorrhage dropped sharply after bleeding to approximately 20 mm Hg.”\nClaudin-3 is a TJ protein that has important roles in establishing epithelial and endothelial barriers. To find out whether HS and VPA treatment affect claudin-3 protein in TJ of epithelial cells, protein expression was analyzed in intestinal tissue obtained from sham, HS 1 hour (1 hour after hemorrhagic shock), and VPA-treated animals (1 hour, 6 hours, and 24 hours after treatment). […]"}, "hemorrhagic shock [2]": {"system": "hemorrhagic shock", "assay": "Survival in lethal model of hemorrhagic shock", "type": "in vivo, rat", "conditions": "rats, 60% blood volume hemorrhage, VPA 300 mg/kg; none of the untreated animals survived", "protocol": "as §1, with “Hg. Blood was drawn at baseline (BL, before hemorrhage), hemorrhagic shock (HS), and 24 hours after VPA treatment from individual rats for protein biomarker screening and identification.” for “Hg.”"}, "hemorrhagic shock [3]": {"system": "hemorrhagic shock", "conditions": "rats; Shults et al. 2008, Li et al. 2008, WO 2007117272; cited from earlier work"}, "claudin-3 [4]": {"system": "claudin-3", "assay": "iTRAQ quantification of serum claudin-3 peptide in hemorrhagic shock model", "type": "in vivo", "conditions": "rat serum, 24 hours post-VPA treatment (300 mg/kg) vs post-hemorrhagic shock; BL to HS ratio 0.323", "protocol": "as §1\nImmunodepletion of serum abundant proteins was performed as follows. […] Column performance was monitored by sodium dodecyl sulphate-polyacrylamide gel electrophoresis (SDS-PAGE) followed by Coomassie Blue staining (BioBlue, BioRad). […]"}, "claudin-3 [5]": {"system": "claudin-3", "assay": "Western blot of serum claudin-3 in hemorrhagic shock model", "type": "in vivo", "conditions": "rat serum, 1 hour following VPA treatment; HS 1 hour group showed ~23 kDa and ~11 kDa bands", "experimental": "An animal model of HS was used. Male Wistar-Kyoto rats (254.12±2.71 grams, Harlan, Indianapolis, Ind.) were used in the lethal model of hemorrhagic shock (Shults et al., J. Trauma. 2008; 64(3): 629-638). Each animal's estimated blood volume was calculated using the formula: [estimated blood volume (mL)=weight (g)×0.06 (mL/g)+0.77]. About 1.3 mL of blood was manually drawn at the beginning and end of hemorrhage for analysis (included in the total hemorrhage calculation). The animals were hemorrhaged (40% of their calculated total blood volume) via a femoral arterial catheter over 10 minutes, followed by a 20% blood volume venous bleed over the next 50 minutes. Bleeding was performed using Kent Scientific adjustable pumps (Kent Scientific Corporation, NJ). VPA (300 mg/kg) was administered via a femoral vein catheter after completion of hemorrhage. Blood pressure was monitored continuously during the experiment. […]\nTo assess whether claudin-3 is a potential biomarker, independent serum samples were taken of sham (no hemorrhage and no treatment), HS 1 hour (1 hour following hemorrhagic shock), and VPA 1 hour (1 hour following VPA treatment) from individual rats and the level of the candidate biomarker was determined by Western blot with anti-claudin-3 antibody. […]"}},
  "data": [
    {"smiles": "CCCC(CCC)C(=O)O", "note": "[VPA, Valproic acid]", "values": [
      {"measurement": "serum level of 22.7 kDa protein (SELDI-TOF MS peak intensity) vs HS", "setting": "22.7 kDa protein", "value": "down-regulated in the VPA group sharply"},
      {"measurement": "intestinal claudin-3 mRNA expression by RT-PCR", "setting": "claudin-3 mRNA", "value": "did not significantly change claudin-3 mRNA expression"},
      {"measurement": "intestinal claudin-3 protein level by Western blot", "setting": "claudin-3 [1]", "value": "significantly attenuated the HS-induced reduction of claudin-3"},
      {"measurement": "survival after hemorrhagic shock", "setting": "hemorrhagic shock [2]", "value": "survived"},
      {"measurement": "survival after lethal HS (literature)", "setting": "hemorrhagic shock [3]", "value": "improves survival after lethal HS in rats"},
      {"measurement": "ratio of VPA to HS, claudin-3 peptide iTRAQ tag intensity in serum", "setting": "claudin-3 [4]", "value": 0.425},
      {"measurement": "serum claudin-3 by Western blot", "setting": "claudin-3 [5]", "value": "no claudin-3 was detected"}
    ]}
  ]
}
